Test results taken from ChEMBL document CHEMBL4699521, “Design and synthesis of 4-Aminoquinoline-isoindoline-dione-isoniazid triads as potential anti-mycobacterials” (Bioorg Med Chem Lett, 2020).
pIC50: −log10 of the molar value. In brackets after ≈: the same amount, converted by molar mass.

Experiments:
[1] = Selectivity index, ratio of IC50 for African green monkey Vero cells to MIC99 for Mycobacterium tuberculosis mc2 6230; assay type: toxicity; details: read-out: Selectivity Index
[2] = molecular target: T1, Enoyl-[acyl-carrier-protein] reductase [NADH] (Mycobacterium tuberculosis) (UniProt P9WGR1); assay: Inhibition of Mycobacterium tuberculosis mc2 6230 InhA assessed as antimycobacterial activity by measuring minimum inhibitory concentration required to inhibit 99% of bacterial growth
T1 sequence (whole entry): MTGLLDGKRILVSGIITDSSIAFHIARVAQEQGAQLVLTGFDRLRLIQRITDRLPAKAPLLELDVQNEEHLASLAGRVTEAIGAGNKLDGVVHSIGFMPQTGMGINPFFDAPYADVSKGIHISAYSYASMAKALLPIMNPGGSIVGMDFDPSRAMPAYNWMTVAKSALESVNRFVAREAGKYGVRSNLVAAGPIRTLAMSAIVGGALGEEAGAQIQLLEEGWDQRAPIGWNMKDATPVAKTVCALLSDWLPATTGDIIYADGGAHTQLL

[3] = tested on: Vero; assay: Cytotoxicity against African green monkey Vero cells; assay type: cell-based; details: Chlorocebus sabaeus
[4] = tested on: Mycobacterium tuberculosis; assay: Antitubercular activity against Mycobacterium tuberculosis mc2 6230 assessed as minimum inhibitory concentration required to inhibit 99% of bacterial growth measured after 2 to 3 weeks; assay type: functional; details: time weeks 2-3
[5] = tested on: Vero; assay: Cytotoxicity against African green monkey Vero cells assessed as reduction in cell viability measured after 24 hrs by resazurin assay; assay type: cell-based; details: Chlorocebus sabaeus
[6] = tested on: Mycobacterium tuberculosis; assay: Antitubercular activity against Mycobacterium tuberculosis mc2 6230 assessed as minimum inhibitory concentration required to inhibit 99% of bacterial growth incubated for 7 days by two-fold serial dilution method; assay type: functional; details: mc2 6230, 168 h, time 7 day
[7] = tested on: Mycobacterium tuberculosis; assay: Antitubercular activity against Mycobacterium tuberculosis mc2 6230 assessed as minimum inhibitory concentration required to inhibit 99% of bacterial growth; assay type: functional
[8] = tested on: Mycobacterium tuberculosis; assay: Antimycobacterial activity against Mycobacterium tuberculosis H37Rv assessed as reduction in bacterial cell growth; assay type: functional
[9] = tested on: Mycobacterium tuberculosis; assay: Antitubercular activity against Mycobacterium tuberculosis H37Rv assessed as reduction in bacterial cell growth measured after 7 days by alamar blue assay; assay type: functional; details: 168 h, time 7 day

O=C(CN1C(=O)c2ccccc2C1=O)NNC(=O)c1ccncc1
selectivity ratio [1]: > 1 | MIC99 [2]: 308 µM (≈ 100 µg/mL) | pIC50 [3]: < 3.51

Cc1ccc(N2C(=O)C(NC(=O)CCNc3ccnc4cc(Cl)ccc34)[C@@H]2/C=C/c2ccccc2)cc1 (some centres not stated)
MIC [4]: 9.8 µM (≈ 5.01 µg/mL)

O=C1c2ccc(N3CCCCC3)cc2C(=O)N1CCCCNc1ccnc2cc(Cl)ccc12
pIC50 [5]: < 3.66 | MIC [6]: 13.5 µM (≈ 6.25 µg/mL)

O=C(NN1C(=O)c2ccc(C(=O)OCCCNc3ccnc4cc(Cl)ccc34)cc2C1=O)c1ccncc1
selectivity ratio [1]: > 16 | MIC99 [2]: 11.9 µM (≈ 6.31 µg/mL) | pIC50 [3]: < 3.71

O=C(NNC(=O)c1ccc2c(c1)C(=O)N(CCCCCCCCNc1ccnc3cc(Cl)ccc13)C2=O)c1ccncc1
selectivity ratio [1]: 25 | MIC99 [2]: 5.1 µM (≈ 3.06 µg/mL) | pIC50 [3]: 3.89

O=C(NNC(=O)c1ccc2c(c1)C(=O)N(CCCNc1ccnc3cc(Cl)ccc13)C2=O)c1ccncc1
selectivity ratio [1]: 2.5 | MIC99 [2]: 47.3 µM (≈ 25 µg/mL) | pIC50 [3]: 3.92

O=C(O)c1ccc2c(c1)C(=O)N(CCCCCCNc1ccnc3cc(Cl)ccc13)C2=O
selectivity ratio [1]: 0.11 | MIC99 [2]: 222 µM (≈ 100 µg/mL) | pIC50 [3]: 4.61

NNC(=O)c1ccncc1
MIC99 [2]: 0.07 µM (≈ 0.0096 µg/mL)

O=C(NCCCNc1ccnc2cc(Cl)ccc12)c1ccc2c(c1)C(=O)N(NC(=O)c1ccncc1)C2=O
selectivity ratio [1]: 27 | MIC99 [2]: 5.8 µM (≈ 3.07 µg/mL) | pIC50 [3]: 3.79

O=C(NCCCCNc1ccnc2cc(Cl)ccc12)c1ccc2c(c1)C(=O)N(NC(=O)c1ccncc1)C2=O
selectivity ratio [1]: 0.6 | MIC99 [2]: 23 µM (≈ 12.5 µg/mL) | pIC50 [3]: 4.83

O=C(CN1C(=O)c2ccc(F)cc2C1=O)NCCNc1ccnc2cc(Cl)ccc12
pIC50 [5]: < 3.63 | MIC [6]: 14.6 µM (≈ 6.23 µg/mL)

O=C(O)c1ccc2c(c1)C(=O)N(CCNc1ccnc3cc(Cl)ccc13)C2=O
selectivity ratio [1]: > 0.5 | MIC99 [2]: > 506 µM | pIC50 [3]: < 3.60

O=C(O)c1ccc2c(c1)C(=O)N(CCCCCCCCNc1ccnc3cc(Cl)ccc13)C2=O
selectivity ratio [1]: > 0.5 | MIC99 [2]: 417 µM (≈ 200 µg/mL) | pIC50 [3]: < 3.68

O=C(NN1C(=O)c2ccc(N3CCN(c4ccnc5cc(Cl)ccc45)CC3)cc2C1=O)c1ccncc1
selectivity ratio [1]: > 32.5 | MIC99 [2]: 6 µM (≈ 3.08 µg/mL) | pIC50 [3]: < 3.71

O=C(NCCCCCCCCNc1ccnc2cc(Cl)ccc12)c1ccc2c(c1)C(=O)N(NC(=O)c1ccncc1)C2=O
selectivity ratio [1]: > 32.7 | MIC99 [2]: 5.1 µM (≈ 3.06 µg/mL) | pIC50 [3]: < 3.78

O=C(O)c1ccc2c(c1)C(=O)N(CCCCNc1ccnc3cc(Cl)ccc13)C2=O
selectivity ratio [1]: 0.16 | MIC99 [2]: 236 µM (≈ 100 µg/mL) | pIC50 [3]: 4.40

O=C(NCCCCCCNc1ccnc2cc(Cl)ccc12)c1ccc2c(c1)C(=O)N(NC(=O)c1ccncc1)C2=O
selectivity ratio [1]: 3 | MIC99 [2]: 11 µM (≈ 6.28 µg/mL) | pIC50 [3]: 4.48

O=C(O)c1ccc2c(c1)C(=O)N(CCCNc1ccnc3cc(Cl)ccc13)C2=O
selectivity ratio [1]: 0.5 | MIC99 [2]: 489 µM (≈ 200 µg/mL) | pIC50 [3]: 3.62

O=C1c2ccccc2C(=O)N1CCCCCCCCNc1ccnc2cc(Cl)ccc12
MIC [7]: 13.5 µM (≈ 5.89 µg/mL) | pIC50 [3]: 4.94

O=C(NN1C(=O)c2ccc(C(=O)OCCNc3ccnc4cc(Cl)ccc34)cc2C1=O)c1ccncc1
selectivity ratio [1]: > 0.5 | MIC99 [2]: > 388 µM | pIC50 [3]: < 3.71

O=C1C(=O)N(CCCN2CCN(c3ccnc4cc(Cl)ccc34)CC2)c2ccc(F)cc21
MIC [4]: < 10.1 µM

O=C(NNC(=O)c1ccc2c(c1)C(=O)N(CCCCCCNc1ccnc3cc(Cl)ccc13)C2=O)c1ccncc1
selectivity ratio [1]: 5.8 | MIC99 [2]: 21.9 µM (≈ 12.5 µg/mL) | pIC50 [3]: 3.89

O=C(NCCNc1ccnc2cc(Cl)ccc12)c1ccc2c(c1)C(=O)N(NC(=O)c1ccncc1)C2=O
selectivity ratio [1]: 10.6 | MIC99 [2]: 6 µM (≈ 3.09 µg/mL) | pIC50 [3]: 4.19

O=C(NNC(=O)c1ccc(N2C(=O)c3ccccc3C2=O)cc1)c1ccncc1
selectivity ratio [1]: > 2 | MIC99 [2]: 129 µM (≈ 50 µg/mL) | pIC50 [3]: < 3.59

O=C(NNC(=O)c1ccc2c(c1)C(=O)N(CCNc1ccnc3cc(Cl)ccc13)C2=O)c1ccncc1
selectivity ratio [1]: > 0.5 | MIC99 [2]: 389 µM (≈ 200 µg/mL) | pIC50 [3]: < 3.71

O=C(NN1C(=O)c2c(F)c(F)c(F)c(F)c2C1=O)c1ccncc1
MIC [8]: 3.4 µM (≈ 1.15 µg/mL)

O=C(Cn1cc(CN2C(=O)c3ccccc3C2=O)nn1)Nc1ccc(Br)cc1
MIC [9]: 28.4 µM (≈ 12.5 µg/mL)

O=C(NN1C(=O)c2cccc3cccc(c23)C1=O)c1ccncc1
MIC [7]: > 631 µM

O=C(NNC(=O)c1ccc2c(c1)C(=O)N(CCCCNc1ccnc3cc(Cl)ccc13)C2=O)c1ccncc1
selectivity ratio [1]: 0.7 | MIC99 [2]: 23 µM (≈ 12.5 µg/mL) | pIC50 [3]: 4.78
